The values below come from PMC12483151, “Late-Stage Functionalization of Lysine to Organelle-Targeting Fluorescent Probes” (JACS Au, 2025).

The test system of data set [1] is T-47D cells.
The subject of data set [2] is T-47D cells. The experiment in a line: Mitochondrial colocalization imaging with MitoTracker Red. It counts as cell-based, Human. The conditions noted are these: T-47D live cells.
Procedure: Cells were plated in an IBIDI 8-well glass bottom chamber at a density of 25,000 cells per well in media and allowed to adhere overnight at 37 °C, 5% CO2. Fresh 10 mM stock solutions of probes were prepared in DMSO on the day of experimentation. Working solutions of all compounds in media were prepared on the day of experimentation. Culture media was removed from the wells, and 200 mL of 100 nM probe was added to the desired wells and placed in an incubator for 30 min. Media was removed from the wells, and 200 mL of 100 nM MitroTracker-Red FM (ThermoFisher, M22425) was added to the desired wells and placed in an incubator for 15 min. Staining media was removed, and cells were washed with 200 μL of PBS for 5 min (repeated 3 times). PBS was removed and replaced with 200 mL of fresh medium, followed by immediate imaging. Five images were captured for each well. Colocalization analysis for Pearson’s R (R) and Mander’s Colocalization Coefficient (MCC) was conducted using the EzColocalization Plugin for ImageJ.
Colocalization studies – EzColocalization Details. Co-localization studies were done using
EzColocalization. EzColocalization is an ImageJ Application Program Interface (APIs)-an open-source
plugin, where individual cells can be highlighted and colocalization studies can be run across three
channels. The metric matrix for TOS (linear scaling) in the heatmap quantifies colocalization. FT […]
The subject of data set [3] is E. coli. The conditions noted are these: MHB, 37 °C, 18 h, OD600; for Discrete-well MIC (CLSI definition, two-fold dilutions): E. coli ~5 x 10^5 CFU/mL, lowest concentration with ≤ 10 % growth; for Extrapolated (interpolated) MIC (4-parameter logistic fit): E. coli, concentration at 10 % growth by curve fit. The procedure:
Plates were sealed and incubated
(1 picture or pasted object on this page, not shown here)

Molecules are shown by their SMILES. “And” between values parts separate entries of the source, which are not always exact repeats. Equal entries are not always repeated. Where a SMILES comes first, the peptide text is derived from it.

With `COc1cccc2c1C(=O)c1c(O)c3c(c(O)c1C2=O)C[C@@](O)(C(=O)CO)C[C@@H]3O[C@H]1C[C@H](N)[C@H](O)[C@H](C)O1` [Dox, doxorubicin], the “survival less than DOX-Py” value in data set [1] (100 nM, 1 h, Annexin V/PI, n = 3 biological replicates) was 20%. This compound also registered a survival rate in data set [1] (Annexin V/PI flow cytometry (100 nM, 1 h per Figure S25)) of 40%. Also, in data set [2] (100 nM probe, 100 nM MitoTracker Red, EzColocalization/ImageJ, 1 = perfect colocalization, -1 = none), the “Pearson's coefficient (colocalization with MitoTracker Red)” value turned out to be 0.397. Besides, the subcellular localization result in data set [2] (100 nM, co-stained with MitoTracker Red) is reported as “primarily colocalized with the nucleus”.
`COc1ccc(C(=O)c2c(-c3ccc(OC)cc3)cc(-c3ccc(OC)cc3)[n+](CCCC[C@H](NC(C)=O)C(=O)N[C@@H](CCCNC(=N)N)C(=O)N[C@@H](Cc3c[nH]c4ccccc34)C(=O)N[C@@H](CCCNC(=N)N)C(=O)N[C@@H](Cc3c[nH]c4ccccc34)C(N)=O)c2-c2ccc(OC)cc2)cc1` [5g]: in data set [3], the “Discrete-well MIC (CLSI definition, two-fold dilutions)” value was 125 µM; the “Extrapolated (interpolated) MIC (4-parameter logistic fit)” value was 0.0715 mM and 0.072 ± 0.01 mM.
For the compound `CC(=O)N[C@@H](CCCCN)C(=O)N[C@@H](CCCNC(=N)N)C(=O)N[C@@H](Cc1c[nH]c2ccccc12)C(=O)N[C@@H](CCCNC(=N)N)C(=O)N[C@@H](Cc1c[nH]c2ccccc12)C(N)=O` [2g] (Ac-KRWRW-NH2), in data set [3], the “Discrete-well MIC (CLSI definition, two-fold dilutions)” value was found to be 125 µM; the “Extrapolated (interpolated) MIC (4-parameter logistic fit)” value was 0.0693 mM and 0.069 ± 0.06 mM.
Take `COc1ccc(C(=O)c2c(-c3ccc(OC)cc3)cc(-c3ccc(OC)cc3)[n+](CCCC[C@H](NC(=O)[C@H](CC(=O)O)NC(=O)[C@H](CC(C)C)NC(C)=O)C(=O)N[C@H](C(=O)N[C@@H](CC(N)=O)C(=O)N[C@@H](CCCNC(=N)N)C(N)=O)C(C)C)c2-c2ccc(OC)cc2)cc1` [5b]: the “Percentage cell death (average)” value in data set [1] (100 nM, 1 h, Annexin V/PI, n = 3 biological replicates, one average given for 4f and 5b) amounted to 4.6%.
